Key:
Details in all cases: 48 h
[1] = system: NOMO1; test: AUC of viability dose-response curve (% viability x log10 dose units); higher = less sensitive
How it was run: (§1)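 Area under the curve was integrated by trapezoidal rule from a log-logistic fit of normalised viability, with curves exceeding full viability scaled and quality-control failures removed. The fit had four parameters over log10 doses. Viability came from CellTiter-Glo One luminescence, normalised per plate to DMSO and cell-free wells, after leukemia cells adapted to each medium (500 or 1000 cells/well, 1536-well plates) were exposed to library compounds in DMSO for 48 h at 37°C. The 11 threefold doses ran from 47 μM to 0.79 nM.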

[2] = system: SEM cells; test: as above
How it was run: as §1

[3] = system: P12-Ichikawa; test: as above
How it was run: as §1

[4] = system: NOMO1; test: cell viability relative to DMSO control; higher = less cytotoxic
How it was run: (§2)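 NOMO1 or SEM (500 cells/well) or P12-Ichikawa (1000 cells/well) leukemia cells were adapted for at least four passages in each medium. They were seeded in 1536-well plates (5 μl) and pin-dosed with library compounds in DMSO over an 11-point threefold series, 47 μM to 0.79 nM. CellTiter-Glo One luminescence was read after 48 h at 37°C. Viability is the per-plate percentage relative to DMSO wells, with cell-free wells as background.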

[5] = system: SEM cells; test: as above
How it was run: as §2

[6] = system: P12-Ichikawa; test: as above
How it was run: as §2

COc1ccc2[nH]c([S+]([O-])Cc3ncc(C)c(OC)c3C)nc2c1 (centres undefined)
AUC of viability dose-response curve
Details	[1]	[2]	[3]
HPLM + 10% dialyzed FBS	411	354	427
RPMI 5 mM glucose + 10% FBS	434	411	398
RPMI 5 mM glucose + 10% dialyzed FBS	418	392	363

cell viability [%]
Details	[4]	[5]	[6]
HPLM + 10% dialyzed FBS, 0.000781 µM	89.2	83.2	82.5
HPLM + 10% dialyzed FBS, 0.00234 µM	78.3	84.8	85.9
HPLM + 10% dialyzed FBS, 0.00702 µM	90.9	66.8	92.3
HPLM + 10% dialyzed FBS, 0.0211 µM	88.4	87.9	90
HPLM + 10% dialyzed FBS, 0.0632 µM	95.9	71.9	91.6
HPLM + 10% dialyzed FBS, 0.19 µM	83.7	70.5	90
HPLM + 10% dialyzed FBS, 0.569 µM	85.5	86.6	90.4
HPLM + 10% dialyzed FBS, 1.71 µM	89.9	42.6	92
HPLM + 10% dialyzed FBS, 5.12 µM	87.3	72.8	95.5
HPLM + 10% dialyzed FBS, 15.4 µM	86.6	74.9	95.4
HPLM + 10% dialyzed FBS, 46.1 µM	59.8	75.7	78.4
RPMI 5 mM glucose + 10% FBS, 0.000781 µM	74.9	83.8	73.7
RPMI 5 mM glucose + 10% FBS, 0.00234 µM	100	91	86.8
RPMI 5 mM glucose + 10% FBS, 0.00702 µM	78.3	83.9	81.3
RPMI 5 mM glucose + 10% FBS, 0.0211 µM	97	101	89.6
RPMI 5 mM glucose + 10% FBS, 0.0632 µM	80.7	77.3	85.1
RPMI 5 mM glucose + 10% FBS, 0.19 µM	92	100	78
RPMI 5 mM glucose + 10% FBS, 0.569 µM	90	96.8	85.8
RPMI 5 mM glucose + 10% FBS, 1.71 µM	100	63.8	91.9
RPMI 5 mM glucose + 10% FBS, 5.12 µM	96.3	87.5	85.2
RPMI 5 mM glucose + 10% FBS, 15.4 µM	93.5	87.1	84.9
RPMI 5 mM glucose + 10% FBS, 46.1 µM	89.1	69.8	67.4
RPMI 5 mM glucose + 10% dialyzed FBS, 0.000781 µM	70.7	81.4	79.2
RPMI 5 mM glucose + 10% dialyzed FBS, 0.00234 µM	91.7	83.5	79.8
RPMI 5 mM glucose + 10% dialyzed FBS, 0.00702 µM	68	77	78.2
RPMI 5 mM glucose + 10% dialyzed FBS, 0.0211 µM	98.7	95.8	77
RPMI 5 mM glucose + 10% dialyzed FBS, 0.0632 µM	93.4	76.7	76.8
RPMI 5 mM glucose + 10% dialyzed FBS, 0.19 µM	95.6	86.8	75.1
RPMI 5 mM glucose + 10% dialyzed FBS, 0.569 µM	87.8	105	76.7
RPMI 5 mM glucose + 10% dialyzed FBS, 1.71 µM	97.9	69.7	76.4
RPMI 5 mM glucose + 10% dialyzed FBS, 5.12 µM	86	76.3	70.6
RPMI 5 mM glucose + 10% dialyzed FBS, 15.4 µM	91.1	83.6	79.6
RPMI 5 mM glucose + 10% dialyzed FBS, 46.1 µM	82.3	68.3	66.6

C[C@H]1[C@@H](C(=O)C[C@H]2O[C@@H]3O[C@]4(C)CC[C@H]5[C@H](C)CC[C@@H]([C@H]2C)[C@@]35OO4)O[C@@H]2O[C@]3(C)CC[C@H]4[C@H](C)CC[C@@H]1[C@@]24OO3
AUC of viability dose-response curve
Details	[1]	[2]	[3]
HPLM + 10% dialyzed FBS	435	411	433
RPMI 5 mM glucose + 10% FBS	436	407	435
RPMI 5 mM glucose + 10% dialyzed FBS	418	432	421

cell viability [%]
Details	[4]	[5]	[6]
HPLM + 10% dialyzed FBS, 0.000781 µM	114	92.6	117
HPLM + 10% dialyzed FBS, 0.00234 µM	121	106	113
HPLM + 10% dialyzed FBS, 0.00702 µM	122	95.1	116
HPLM + 10% dialyzed FBS, 0.0211 µM	102	83.9	124
HPLM + 10% dialyzed FBS, 0.0632 µM	127	102	115
HPLM + 10% dialyzed FBS, 0.19 µM	115	84.1	119
HPLM + 10% dialyzed FBS, 0.569 µM	116	84.6	113
HPLM + 10% dialyzed FBS, 1.71 µM	102	91.5	110
HPLM + 10% dialyzed FBS, 5.12 µM	111	89	90.1
HPLM + 10% dialyzed FBS, 15.4 µM	67	75.4	86.3
HPLM + 10% dialyzed FBS, 46.1 µM	21	6.82	14.4
RPMI 5 mM glucose + 10% FBS, 0.000781 µM	103	87.2	117
RPMI 5 mM glucose + 10% FBS, 0.00234 µM	117	112	130
RPMI 5 mM glucose + 10% FBS, 0.00702 µM	102	116	121
RPMI 5 mM glucose + 10% FBS, 0.0211 µM	99.4	109	121
RPMI 5 mM glucose + 10% FBS, 0.0632 µM	110	113	120
RPMI 5 mM glucose + 10% FBS, 0.19 µM	110	107	119
RPMI 5 mM glucose + 10% FBS, 0.569 µM	103	105	102
RPMI 5 mM glucose + 10% FBS, 1.71 µM	109	96.8	104
RPMI 5 mM glucose + 10% FBS, 5.12 µM	105	72.1	102
RPMI 5 mM glucose + 10% FBS, 15.4 µM	58.4	53.1	82.7
RPMI 5 mM glucose + 10% FBS, 46.1 µM	24.8	5.74	9.74
RPMI 5 mM glucose + 10% dialyzed FBS, 0.000781 µM	114	96.3	120
RPMI 5 mM glucose + 10% dialyzed FBS, 0.00234 µM	131	114	111
RPMI 5 mM glucose + 10% dialyzed FBS, 0.00702 µM	105	115	112
RPMI 5 mM glucose + 10% dialyzed FBS, 0.0211 µM	120	99.7	113
RPMI 5 mM glucose + 10% dialyzed FBS, 0.0632 µM	122	113	110
RPMI 5 mM glucose + 10% dialyzed FBS, 0.19 µM	107	109	101
RPMI 5 mM glucose + 10% dialyzed FBS, 0.569 µM	93.9	116	98.8
RPMI 5 mM glucose + 10% dialyzed FBS, 1.71 µM	95.2	96.9	102
RPMI 5 mM glucose + 10% dialyzed FBS, 5.12 µM	96.2	92.9	93.6
RPMI 5 mM glucose + 10% dialyzed FBS, 15.4 µM	69	75	56.1
RPMI 5 mM glucose + 10% dialyzed FBS, 46.1 µM	24.6	7.69	15.4

OC(=O)C(CC/1=C/C(=O)NC2=CC=CC=C12)NC(=O)C3=CC=C(Cl)C=C3 (centres undefined)
AUC of viability dose-response curve
Details	[1]	[2]	[3]
HPLM + 10% dialyzed FBS	469	447	468
RPMI 5 mM glucose + 10% FBS	454	467	436
RPMI 5 mM glucose + 10% dialyzed FBS	469	470	465

cell viability [%]
Details	[4]	[5]	[6]
HPLM + 10% dialyzed FBS, 0.000781 µM	95.6	94.7	111
HPLM + 10% dialyzed FBS, 0.00234 µM	117	93.9	118
HPLM + 10% dialyzed FBS, 0.00702 µM	136	108	120
HPLM + 10% dialyzed FBS, 0.0211 µM	121	106	123
HPLM + 10% dialyzed FBS, 0.0632 µM	130	108	123
HPLM + 10% dialyzed FBS, 0.19 µM	121	107	125
HPLM + 10% dialyzed FBS, 0.569 µM	131	116	124
HPLM + 10% dialyzed FBS, 1.71 µM	122	105	128
HPLM + 10% dialyzed FBS, 5.12 µM	131	121	122
HPLM + 10% dialyzed FBS, 15.4 µM	136	121	126
HPLM + 10% dialyzed FBS, 46.1 µM	110	112	125
RPMI 5 mM glucose + 10% FBS, 0.000781 µM	121	113	109
RPMI 5 mM glucose + 10% FBS, 0.00234 µM	122	109	115
RPMI 5 mM glucose + 10% FBS, 0.00702 µM	121	106	119
RPMI 5 mM glucose + 10% FBS, 0.0211 µM	134	113	117
RPMI 5 mM glucose + 10% FBS, 0.0632 µM	132	133	131
RPMI 5 mM glucose + 10% FBS, 0.19 µM	127	112	122
RPMI 5 mM glucose + 10% FBS, 0.569 µM	140	116	128
RPMI 5 mM glucose + 10% FBS, 1.71 µM	155	112	121
RPMI 5 mM glucose + 10% FBS, 5.12 µM	137	121	128
RPMI 5 mM glucose + 10% FBS, 15.4 µM	135	126	132
RPMI 5 mM glucose + 10% FBS, 46.1 µM	134	104	141
RPMI 5 mM glucose + 10% dialyzed FBS, 0.000781 µM	114	120	120
RPMI 5 mM glucose + 10% dialyzed FBS, 0.00234 µM	125	105	122
RPMI 5 mM glucose + 10% dialyzed FBS, 0.00702 µM	147	126	129
RPMI 5 mM glucose + 10% dialyzed FBS, 0.0211 µM	127	130	130
RPMI 5 mM glucose + 10% dialyzed FBS, 0.0632 µM	139	118	139
RPMI 5 mM glucose + 10% dialyzed FBS, 0.19 µM	137	119	135
RPMI 5 mM glucose + 10% dialyzed FBS, 0.569 µM	136	135	135
RPMI 5 mM glucose + 10% dialyzed FBS, 1.71 µM	135	117	128
RPMI 5 mM glucose + 10% dialyzed FBS, 5.12 µM	134	131	130
RPMI 5 mM glucose + 10% dialyzed FBS, 15.4 µM	132	119	124
RPMI 5 mM glucose + 10% dialyzed FBS, 46.1 µM	143	120	133

From the supplement of paper PMC11451515
